The record followed here is patent US11001583B2, “Dihydropyrrolopyridine inhibitors of ROR-gamma” (Vitae Pharmaceuticals, LLC, priority 2014, dated 2021).

Molecules are shown by their SMILES.

The subject of series [1] is IL-17A production. The experiment in a line: Human Whole Blood Assay (Assay 3). It counts as cell-based. Particulars: IL-17A secretion, 50% blood/media. On the procedure:
Human Whole Blood Assay (Assay 3)
Compounds of the invention were tested in the human whole blood assay to measure their effects on IL-17A production as determined by cytokine secretion into 50% blood/media supernatant. Mixtures of sodium heparinized whole blood (isolated from healthy human donors) and the T cell activator CytoStim, in the presence or absence of compound, were plated in sterilized, tissue culture-treated 24-well plates. Specifically, the mixtures in each well were as follows: (1) 500 μL of whole blood, (2) 250 μL of compound diluted into RPMI-1640 media containing 10% HyClone™ FCS (Thermo Fisher Scientific, Waltham, Mass.), Gibco® Pen/Strep and Gibco® NEAA (Life Technologies, Grand Island, N.Y.), and (3) 250 μL, of CytoStim (Miltenyi Biotech, Germany) diluted to a final concentration of 10 μL/mL in complete cell culture medium.
Mixtures were incubated at 37° C./5% CO2 for 48 h, after which, 200 μL of clean supernatant (i.e., no red blood cells) from each well was transferred to a well in a 96-well plate. IL-17A cytokine expression was determined using 25 μL of the transferred supernatant diluted with 25 μL of Diluent 43 from the Human IL-17A V-PLEX™ kit (cat. #K151RFD-4, Meso Scale Discovery, Rockville, Md.). The assay was performed according to the manufacturer's instructions using included reagents. The IL-17A V-PLEX™ plates were read using the Meso Scale Discovery Imager (Model 1200). The levels of IL-17A were extrapolated from a standard curve using a four-parameter non-linear fitting model and expressed as pg/mL. These values were regressed against concentrations of the tested compounds to derive IC50 values using a four-parameter non-linear fitting model.

Series [2] concerns the target hERG (human ether-à-go-go-related gene) potassium ion channel (Homo sapiens (Human), UniProt Q12809). The series can be described thus: hERG Assay (Assay 4). It counts as cell-based. The note with it: patch clamp, HEK 293 cells. On the procedure: Compounds of the invention were tested in vitro against the hERG (human ether-à-go-go-related gene) potassium ion channel (a surrogate for IKr, the rapidly activating delayed rectifier cardiac potassium ion channel).
The buffer was HEPES-buffered physiological saline (HB-PS) solution composed of: 137 mM NaCl, 4.0 mM KCl, 1.8 mM CaCl2, 1 mM MgCl2, 10 mM HEPES, 10 mM glucose, pH adjusted to 7.4 with NaOH, and 0.3% DMSO. Chemicals used in solution preparation were purchased from Sigma-Aldrich (St. Louis, Mo.), unless otherwise noted, and were of ACS reagent grade purity or higher.
HEK (human embryonic kidney) 293 cells were stably transfected with hERG cDNA.
For the patch clamp experiment, onset and steady state inhibition of hERG potassium current was measured using a pulse pattern with fixed amplitudes (depolarization: +20 mV for 2 s; repolarization: −50 mV for 2 s) repeated at 10 s intervals from a holding potential of −80 mV. Peak tail current was measured during the 2 s step to −50 mV. A steady state was maintained for at least 30 seconds before applying compound or positive control (cisapride). Peak tail currents were measured until a new steady state was achieved.
Data acquisition and analyses were performed using the suite of pCLAMP® (ver. 8.2) programs (MDS Analytical Technologies, Sunnyvale, Calif.). Steady state was defined by the limiting constant rate of change with time (linear time dependence). The steady state before and after each compound application was used to calculate the percentage of current inhibited at each concentration.
Concentration-response data were fit to an equation of the following form: % Inhibition={1−1/[1+([Test]/IC50)N]}*100
where [Test] was the compound concentration, IC50 was the compound concentration at half-maximal inhibition, N was the Hill coefficient, and % Inhibition was the percentage of current inhibited at each compound concentration. Nonlinear least squares fits were solved with the Solver add-in for Excel 2003 (Microsoft, Wash.) and the IC50 was calculated.

Series [3] concerns the target recombinant RORγ Ligand Binding Domain (LBD) protein (Homo sapiens (Human), UniProt P51449). The experiment in a line: Radio-Ligand RORγ Binding Assay (Assay 1). The note with it: competition with 25-hydroxy [26,27-3H]-cholesterol, SPA; read-out: RORγ Binding Ki Range (nM) (Assay 1). On the procedure:
Radio-Ligand RORγ Binding Assay (Assay 1)
Compounds of the present invention were tested for ability to bind to RORγ in a cell-free competition assay with commercially available radio-ligand (RL), 25-hydroxy [26,27-^3H]-cholesterol (PerkinElmer, Cat. #NET674250UC), for a ligand binding site on a recombinant RORγ Ligand Binding Domain (LBD) protein expressed as a 6×His-Glutathione-S-Transferase (GST) fusion. […] The plate was shaken at 700 rpm for 20 min and incubated for 10 min at rt, after which 40 μL of poly-Lys YSi SPA beads (PerkinElmer, Cat. #RPNQ0010) were added to achieve 50 μg of the beads per well. The plate was incubated on an orbital shaker for 20 min and then for 10 min without agitation at rt. SPA signal for tritium beta radiation was registered on PerkinElmer Microbeta plate reader. […] The percent inhibition vs. concentration data were fit into a four-parameter model, and IC50 values were calculated from the fit as the concentrations corresponding to the inflection points on the dose-response curves.

Series [4] deals with full-length RORγt (Homo sapiens (Human), UniProt P51449). The series can be described thus: RORγt 5×RORE Assay in Jurkat Cells (Assay 2). Particulars: 5×RORE luciferase reporter, read-out: RORγt5X IC50 Range (nM) (Assay 2). It counts as cell-based. On the procedure:
RORγt 5×RORE Assay in Jurkat Cells (Assay 2)
Compounds of the present invention were tested for RORγ inverse agonist activity in a cell-based, transcriptional activity assay. […] (Promega, Cat. #N1021) using KpnI and HindIII restriction sites. […] Tested compounds were added to the cells in the same media (final concentration of DMSO was 0.1% (v/v)), and the plates were incubated at 37° C./5% CO2 for 16-18 hr. Luciferase activity in the conditioned supernatants was determined with NanoGlo® assay reagents (Promega, Cat. #N1130).

Chain of hERG (human ether-à-go-go-related gene) potassium ion channel (Q12809 whole entry): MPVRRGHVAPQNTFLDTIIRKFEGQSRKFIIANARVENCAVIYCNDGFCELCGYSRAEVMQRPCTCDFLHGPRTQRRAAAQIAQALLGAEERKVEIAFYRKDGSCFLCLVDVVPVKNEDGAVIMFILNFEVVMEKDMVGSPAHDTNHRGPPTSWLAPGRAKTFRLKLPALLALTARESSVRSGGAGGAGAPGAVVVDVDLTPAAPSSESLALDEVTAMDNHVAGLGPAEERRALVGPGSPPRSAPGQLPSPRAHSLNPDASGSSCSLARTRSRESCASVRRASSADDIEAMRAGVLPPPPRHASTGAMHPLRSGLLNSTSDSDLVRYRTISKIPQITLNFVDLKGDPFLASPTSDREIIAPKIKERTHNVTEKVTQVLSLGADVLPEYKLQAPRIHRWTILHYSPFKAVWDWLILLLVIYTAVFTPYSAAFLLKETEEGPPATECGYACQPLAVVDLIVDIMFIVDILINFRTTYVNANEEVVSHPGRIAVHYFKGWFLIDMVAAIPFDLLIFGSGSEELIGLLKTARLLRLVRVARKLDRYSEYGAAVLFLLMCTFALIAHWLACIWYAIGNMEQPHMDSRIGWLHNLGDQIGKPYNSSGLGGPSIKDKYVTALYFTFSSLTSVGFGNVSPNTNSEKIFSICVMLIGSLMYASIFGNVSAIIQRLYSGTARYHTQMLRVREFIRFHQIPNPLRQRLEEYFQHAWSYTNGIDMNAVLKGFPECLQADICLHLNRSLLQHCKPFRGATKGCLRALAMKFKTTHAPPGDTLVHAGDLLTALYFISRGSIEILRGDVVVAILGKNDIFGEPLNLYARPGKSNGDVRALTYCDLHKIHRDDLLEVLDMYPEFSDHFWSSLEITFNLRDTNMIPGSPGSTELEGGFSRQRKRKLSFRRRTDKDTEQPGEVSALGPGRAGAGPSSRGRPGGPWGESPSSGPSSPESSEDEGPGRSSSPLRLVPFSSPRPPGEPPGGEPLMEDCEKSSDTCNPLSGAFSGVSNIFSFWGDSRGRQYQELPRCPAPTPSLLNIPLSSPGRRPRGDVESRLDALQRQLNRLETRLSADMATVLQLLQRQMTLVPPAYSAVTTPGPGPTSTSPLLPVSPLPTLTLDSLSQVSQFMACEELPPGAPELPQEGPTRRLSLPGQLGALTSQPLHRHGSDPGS
Chain of recombinant RORγ Ligand Binding Domain (LBD) protein (P51449 269-508): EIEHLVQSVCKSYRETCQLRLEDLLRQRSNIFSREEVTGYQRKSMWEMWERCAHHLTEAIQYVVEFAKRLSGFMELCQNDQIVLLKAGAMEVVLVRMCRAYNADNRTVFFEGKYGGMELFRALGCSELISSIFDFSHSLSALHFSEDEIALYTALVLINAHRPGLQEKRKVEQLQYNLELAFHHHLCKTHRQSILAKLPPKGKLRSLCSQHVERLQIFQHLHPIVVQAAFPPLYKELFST
Chain of full-length RORγt (P51449 other isoform, or with tags, fused parts or gaps): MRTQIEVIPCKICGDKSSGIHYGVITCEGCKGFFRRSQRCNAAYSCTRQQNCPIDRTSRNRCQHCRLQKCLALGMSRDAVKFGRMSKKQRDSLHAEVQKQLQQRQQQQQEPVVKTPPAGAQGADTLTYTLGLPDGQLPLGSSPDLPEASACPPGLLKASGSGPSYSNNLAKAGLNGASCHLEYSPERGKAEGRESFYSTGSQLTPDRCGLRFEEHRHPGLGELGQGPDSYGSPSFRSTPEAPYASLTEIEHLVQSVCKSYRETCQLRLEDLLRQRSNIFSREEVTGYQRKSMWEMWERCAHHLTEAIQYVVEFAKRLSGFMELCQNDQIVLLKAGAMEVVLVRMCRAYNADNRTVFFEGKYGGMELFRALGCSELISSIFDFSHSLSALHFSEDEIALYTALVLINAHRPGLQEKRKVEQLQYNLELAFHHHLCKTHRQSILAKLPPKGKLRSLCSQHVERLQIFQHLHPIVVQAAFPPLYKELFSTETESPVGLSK

In series [1] (CytoStim, 48 h), `CCS(=O)(=O)c1ccc([C@@H](COC(N)=O)NC(=O)c2cnc3c(c2)CN(C[C@H]2CC[C@H](C(F)(F)F)CC2)[C@H]3C(C)C)cc1` [Compound 12] returned an IC50 of 100 to 200 nM. In addition, the “hERG Assay (Compound at 3 μM) % Inhibition (Assay 4)” value in series [2] came out at 38.8%.

The compound `CC[C@H]1c2ncc(C(=O)N[C@@H](COC)c3ccc(S(=O)(=O)CC)cc3)cc2CN1C[C@@H]1CC[C@@H](C(F)(F)F)OC1` (single isomer, unassigned) [Compound 4] displayed an IC50 in series [1] (CytoStim, 48 h) of less than 100 nM.

With `CCOC[C@H](NC(=O)c1cnc2c(c1)CN(C[C@H]1CC[C@H](C(F)(F)F)CC1)[C@H]2C(C)C)c1ccc(S(=O)(=O)CC)cc1` [Compound 7], the Ki in series [3] was less than 100 nM. Moreover, in series [4], the IC50 lay within 100 to 1000 nM.

In turn, `CCS(=O)(=O)c1ccc(CNC(=O)c2cnc3c(c2)CN(C[C@H]2CC[C@H](C(F)(F)F)CC2)[C@H]3C(C)C)nc1` had an IC50 in series [1] (comparator compounds) of more than 200 nM. Besides, the “hERG Assay (Compound at 3 μM) % Inhibition (Assay 4)” value in series [2] (comparator compounds) amounted to 45.4%.

For the compound `CCS(=O)(=O)c1ccc([C@H](COC)NC(=O)c2cnc3c(c2)CN(C[C@H]2CC[C@H](C(F)(F)F)CC2)[C@H]3C(C)C)cc1` [Compound 15], the IC50 in series [1] (CytoStim, 48 h) was less than 100 nM. Besides, the “hERG Assay (Compound at 3 μM) % Inhibition (Assay 4)” value in series [2] was determined as 50%.

As for `CC[C@H]1c2ncc(C(=O)N[C@@H](COC)c3ccc(S(=O)(=O)CC)cc3)cc2CN1C[C@H]1CC[C@H](C(F)(F)F)CC1` [Compound 1, (S)-7-ethyl-N—((R)-1-(4-(ethylsulfonyl)phenyl)-2-methoxyethyl)-6-((trans-4-(trifluoromethyl)cyclohexyl)methyl)-6,7-dihydro-5H-pyrrolo[3,4-b]pyridine-3-carboxamide], in series [2], the “hERG Assay (Compound at 3 μM) % Inhibition (Assay 4)” value is reported as 24.3%.

With `CC[C@H]1c2ncc(C(=O)N[C@@H](COC(N)=O)c3ccc(S(=O)(=O)CC)cc3)cc2CN1C[C@H]1CC[C@H](C(F)(F)F)CC1` [Compound 2, (R)-2-((S)-7-ethyl-6-((trans-4-(trifluoromethyl)cyclohexyl)methyl)-6,7-dihydro-5H-pyrrolo[3,4-b]pyridine-3-carboxamido)-2-(4-(ethylsulfonyl)phenyl)ethyl Carbamate], in series [2], the “hERG Assay (Compound at 3 μM) % Inhibition (Assay 4)” value worked out at 38.8%.

In the case of `CCS(=O)(=O)c1ccc(CNC(=O)c2cnc3c(c2)CN(C[C@H]2CC[C@H](C(F)(F)F)CC2)[C@H]3C(C)C)cc1`, in series [2] (comparator compounds), the “hERG Assay (Compound at 3 μM) % Inhibition (Assay 4)” value was found to be 57.0%.

`CC[C@H]1c2ncc(C(=O)N[C@@H](COC)c3ccc(S(=O)(=O)CC)cc3)cc2CN1C[C@H]1CC[C@H](C(F)(F)F)OC1` (single isomer, unassigned) [Compound 3] came in with an IC50 in series [1] (CytoStim, 48 h) of less than 100 nM. In addition, the “hERG Assay (Compound at 3 μM) % Inhibition (Assay 4)” value in series [2] was determined as 24.3%.

A word on the IC50: it is the concentration that inhibits the measured activity by half. By Ki is commonly meant a dissociation constant, usually derived from enzyme kinetics or from competition with a known ligand.
